From paper PMC7160333, “Physiological Role of Glutamate Dehydrogenase in Cancer Cells” (Frontiers in Oncology, 2020)
Like-named read-outs stand apart in the source and are kept apart here.

Assays:
HeLa cells = settings: for Duplication time: 2-D culture, n = 3; for Maximal cellular densities: reached at day 4
Procedure: All cancer and non-cancer cell lines used were purchased from ATCC and cultured in DMEM (Sigma-Aldrich) supplemented with 10% fetal bovine serum (Biowest, Nuaillé, France) and 10,000 U penicillin/streptomycin (Sigma-Aldrich) and placed under a humidified atmosphere of 5% CO2/95% air at 37°C.
Cell growth was followed by counting cellular density every 24 h during 7 to 8 days. […] The duplication time was determined by using the following equation: n=1/[3.32(logNF-logNI)]/(tF-tI) , where NF represents the number of cultured cells at the end of the exponential growth phase; NI represents the number of cells at the beginning of the growth curve; tF is the final time at which cells were harvested, and tI is the initial culture time. The specific growth rate μ was calculated from the slope of a semilogarithmic plot of cell densities in the exponential growth phase vs. time ([88]).

[1] = system: total GDH activity (GDH1 + GDH2) in HeLa and MCF-7 cells; settings: 5 mM NH4Cl in culture medium, 5 days, data not shown

In the case of `Cl.N` [NH4Cl, Ammonium chloride], the Duplication time (HeLa cells; +5 mM NH4Cl) is reported as 25.5 ± 2 h, the Duplication time (HeLa cells; +10 mM NH4Cl) is reported as 24 ± 2 h and the Maximal cellular densities (HeLa cells; +5 mM NH4Cl) is reported as 153 ± 13 ×10^3. For the same compound, the Maximal cellular densities (HeLa cells; +10 mM NH4Cl) was 163 ± 9 ×10^3, the “Rescue of growth after glutamine removal from the culture medium” value (HeLa cells; NH4Cl 1–10 mM, data not shown) was “did not rescue their growth” and the “Change of total GDH activity” value [1] was “did not alter the total GDH activity or induced a slight (~20%) decrease”.
